Data: ChEMBL document CHEMBL1201862, “PubChem BioAssay data set” (2004)
Calls of active or inactive are those of the source.

Legend:
[1] = control 3'UTR Renilla luciferase suppression, dose response, counter-screen for Shn3 inhibitor project, cell-based, Clone20-Shn3RL, cherry-picked (AID 624133); assay type: functional
[2] = growth suppression of beta-catenin-knockout colon cells, dose response, cell-based, HCT116, human colon tumor (AID 1045); assay type: functional;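 note: HCT116 colon tumor cells with beta catenin knocked out; cells exposed to compound for 60 hours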
[3] = cytotoxicity in KRAS-transformed pancreatic duct cells, primary screen, cell-based, fluorescence, HTS (AID 431); assay type: functional; conditions: Homo sapiens;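 note: cell line used: HPDE-C7K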
[4] = cytotoxicity in HPDE-C7 cells, cell-based, fluorescence, HTS (AID 430); assay type: functional; conditions: Homo sapiens
[5] = Shn3 3'UTR reporter inhibitors, dose response, cell-based, Clone20 osteoblasts, firefly luciferase, cherry-picked (AID 624132); assay type: functional;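 note: firefly luciferase luminescence from reporter carrying the Shn3 3'UTR in osteoblasts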
[6] = growth suppression of PTEN-null colon cells, dose response, cell-based, HCT116 PTEN knockout (AID 1047); assay type: functional;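 note: HCT116 colon tumor cells with PTEN knocked out; cells exposed to compound for 60 hours before readout; potency for loss of cell viability measured by luminescence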
[7] = HepG2 cell cytotoxicity, dose response, cytotoxicity control for Shn3 inhibitor project, CellTiter-Glo, cherry-picked (AID 624134); assay type: functional, cell-based
[8] = inhibitors of SNCA 5'UTR-driven reporter translation, confirmation, H4 neuroglioma cells, luminescence (AID 1988); assay type: functional, cell-based
INS1 = experiment: beta cell apoptosis inhibitors, cytokine rescue, dose response, luminescence, retest (AID 449756); assay type: functional, cell-based; conditions: Rattus norvegicus;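 note: cell death triggered by IL-1 beta plus TNF-alpha plus IFN-gamma mixture; protective hits raise ATP signal compared with cytokine alone wells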
[9] = inhibitors of intracellular T. cruzi replication, confirmation, NIH3T3 host cells, beta-gal luminescence (AID 2044); assay type: functional, cell-based;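 note: intracellular parasites grown in NIH/3T3 mouse fibroblasts as host cells; luminescent beta-galactosidase reporter signal from transgenic T. cruzi replicating inside host cells; inhibitors lower the luminescence signal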
[10] = Luminescence Cell-Based Dose Response HTS to Identify Inhibitors of 5'UTR Stem-Loop Driven Prion Protein mRNA Translation in H4 Neuroglioblastoma Cells. [Related pubchem assays: 1827 (Project Summary), 1813 (Primary HTS)]; assay type: functional
[11] = inhibitors of firefly luciferase expression or activity, dose response, H4 neuroglioma cells, luminescence (AID 1990); assay type: functional, cell-based
[12] = cytotoxicity toward NIH3T3 fibroblasts, dose response, counter-screen, cell-based, ATP luminescence, mouse fibroblasts (AID 2010); assay type: functional;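 note: cells exposed to compound for about 90 hours before reading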
[13] = microbe, parasite or virus in culture; assay type: functional; conditions: Mycobacterium tuberculosis
Aminopeptidase N = target: T1, Aminopeptidase N (Plasmodium falciparum FcB1/Columbia, UniProt O96935); experiment: P. falciparum M1AAP inhibitors, biochemical, fluorogenic H-Leu-NHMec substrate, 1536-well (AID 1445); set-up: species or system Plasmodium falciparum 3D7, 3D7
T1 sequence (O96935 whole entry): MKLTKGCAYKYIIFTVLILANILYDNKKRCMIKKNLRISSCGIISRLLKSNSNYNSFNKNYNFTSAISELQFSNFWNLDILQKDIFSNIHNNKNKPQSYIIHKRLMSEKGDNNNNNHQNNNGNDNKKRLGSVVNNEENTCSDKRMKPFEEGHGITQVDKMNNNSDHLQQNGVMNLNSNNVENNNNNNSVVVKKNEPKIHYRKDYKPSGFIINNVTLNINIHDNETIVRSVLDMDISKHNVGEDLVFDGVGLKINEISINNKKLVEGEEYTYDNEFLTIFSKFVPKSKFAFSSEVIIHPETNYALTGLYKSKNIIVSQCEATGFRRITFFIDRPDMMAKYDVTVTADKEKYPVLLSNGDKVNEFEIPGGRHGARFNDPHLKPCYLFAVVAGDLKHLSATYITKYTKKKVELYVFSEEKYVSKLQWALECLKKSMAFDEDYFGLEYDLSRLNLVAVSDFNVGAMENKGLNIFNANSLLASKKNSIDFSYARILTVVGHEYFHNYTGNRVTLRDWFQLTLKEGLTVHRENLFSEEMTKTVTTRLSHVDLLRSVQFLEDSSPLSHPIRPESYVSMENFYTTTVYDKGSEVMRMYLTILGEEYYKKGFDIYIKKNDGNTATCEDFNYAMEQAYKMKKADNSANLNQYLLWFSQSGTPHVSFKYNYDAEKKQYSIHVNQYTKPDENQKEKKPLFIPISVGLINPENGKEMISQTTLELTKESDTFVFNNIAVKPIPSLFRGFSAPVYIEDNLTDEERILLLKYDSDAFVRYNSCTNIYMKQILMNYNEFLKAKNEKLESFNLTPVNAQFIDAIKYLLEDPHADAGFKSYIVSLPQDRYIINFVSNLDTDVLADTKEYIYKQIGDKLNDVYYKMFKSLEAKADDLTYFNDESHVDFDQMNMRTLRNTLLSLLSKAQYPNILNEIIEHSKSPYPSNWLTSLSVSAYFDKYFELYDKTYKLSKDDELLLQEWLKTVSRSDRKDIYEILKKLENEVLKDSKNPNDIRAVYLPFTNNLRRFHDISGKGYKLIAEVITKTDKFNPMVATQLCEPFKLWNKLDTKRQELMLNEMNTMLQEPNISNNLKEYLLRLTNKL

[14] = Vero cell cytotoxicity, dose response, cytotoxicity control for Vif-APOBEC3G degradation inhibitor project, Vero cells (AID 1117358); assay type: functional; conditions: Human immunodeficiency virus 1, Vero
[15] = Luminescence Cell-Based Dose Response HTS to Identify Activators of Luciferase Translation or Activity in H4 […] Cells. [Related pubchem assays: 1829 (Project Summary), 1814 (Primary HTS)]; assay type: functional
[16] = HIV-1 Env-mediated cell fusion inhibitors, dose response, CCR5-tropic Env (AID 2279); assay type: functional
[17] = target: NAD-dependent protein deacylase sirtuin-5, mitochondrial (Homo sapiens, UniProt Q9NXA8); experiment: SIRT5 desuccinylase inhibitors, dose response, biochemical, fluorescence imaging, cherry-pick, set 5 (AID 720591);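 note: desuccinylation of succinyl peptide AMC substrate read as fluorescence after trypsin release; potency of inhibitors that lower fluorescence and may act on trypsin instead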
[18] = HeLa 4N DNA content increase, dose response, cell-based, IC50 (AID 1117351); assay type: functional
[19] = HeLa 2N DNA content increase, dose response, cell-based, IC50 (AID 1117349); assay type: functional
[20] = NIH-3T3 fibroblast cytotoxicity, dose response, cytotoxicity control, cell-based, fluorescence, Alamar Blue, secondary assay (AID 2327); assay type: functional;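 note: NIH-3T3 mouse fibroblasts cultured with fluconazole at 8 µg/mL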
Vero = experiment: cells; assay type: functional; conditions: Chlorocebus sabaeus
[21] = Luminescent dose response cell-based high throughput screening assay for inhibitors of the Janus kinase 2 mutant JAK2V617F. [Related pubchem assays: 1446 (Primary screen.), 1521 (Confirmation assay.), 1486 (Counter screen.)]; assay type: functional
[22] = C. albicans growth with fluconazole, confirmation, fluorescence, retest (AID 2467); assay type: functional, cell-based
[23] = target: Luciferin 4-monooxygenase (Photinus pyralis, UniProt P08659); experiment: firefly luciferase enzyme inhibitors, dose response, biochemical, luminescence (AID 1891)
Kallikrein-7 = Kallikrein-7 (Homo sapiens, UniProt P49862); experiment: Fluorescence Intensity-based biochemical primary high throughput dose response assay to identify activators of kallikrein-7 (K7) zymogen.
[24] = Luminescence Cell-Based Dose Confirmation HTS to Identify Inhibitors of Platelet Dense Granule Release. [Related pubchem assays: 1663 (Primary HTS), 1678 (Summary of Project)]; assay type: functional

NAD-dependent protein deacylase sirtuin-5, mitochondrial, sequence (Q9NXA8 whole entry): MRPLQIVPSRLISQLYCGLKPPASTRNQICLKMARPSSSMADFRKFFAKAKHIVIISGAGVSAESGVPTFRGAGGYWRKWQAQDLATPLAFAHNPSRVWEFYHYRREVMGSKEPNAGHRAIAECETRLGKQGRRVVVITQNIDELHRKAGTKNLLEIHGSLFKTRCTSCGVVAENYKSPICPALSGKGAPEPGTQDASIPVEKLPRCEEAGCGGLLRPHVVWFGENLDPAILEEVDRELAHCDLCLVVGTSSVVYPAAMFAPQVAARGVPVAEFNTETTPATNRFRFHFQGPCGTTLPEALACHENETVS
Kallikrein-7, sequence (P49862 whole entry): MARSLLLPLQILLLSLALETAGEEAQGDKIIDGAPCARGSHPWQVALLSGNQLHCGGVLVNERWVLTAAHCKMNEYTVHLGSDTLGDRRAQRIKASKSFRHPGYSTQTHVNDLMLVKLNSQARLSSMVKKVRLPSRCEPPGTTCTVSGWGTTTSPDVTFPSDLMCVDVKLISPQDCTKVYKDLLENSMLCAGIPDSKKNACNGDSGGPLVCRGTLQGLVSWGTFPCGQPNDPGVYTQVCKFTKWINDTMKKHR
Luciferin 4-monooxygenase, sequence (P08659 whole entry): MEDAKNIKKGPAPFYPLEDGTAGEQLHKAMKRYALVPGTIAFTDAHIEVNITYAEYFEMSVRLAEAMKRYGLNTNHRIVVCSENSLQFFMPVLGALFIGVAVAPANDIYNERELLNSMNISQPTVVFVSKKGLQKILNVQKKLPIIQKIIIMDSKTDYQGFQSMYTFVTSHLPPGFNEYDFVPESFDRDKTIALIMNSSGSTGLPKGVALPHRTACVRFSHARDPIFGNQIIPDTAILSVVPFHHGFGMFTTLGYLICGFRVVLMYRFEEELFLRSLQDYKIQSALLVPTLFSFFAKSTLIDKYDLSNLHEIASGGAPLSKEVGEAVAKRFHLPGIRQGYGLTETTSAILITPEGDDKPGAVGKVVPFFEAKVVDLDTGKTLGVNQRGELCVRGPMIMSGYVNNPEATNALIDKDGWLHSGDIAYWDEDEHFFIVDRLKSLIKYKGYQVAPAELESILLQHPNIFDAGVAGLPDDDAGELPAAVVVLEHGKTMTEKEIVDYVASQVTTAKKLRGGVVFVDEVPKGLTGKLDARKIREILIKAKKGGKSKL

Q: Which AC50 [1] does the source give for `Cc1cc(C)c(O)c(-c2cc(C(=O)Nc3ccc(S(=O)(=O)N4CCOCC4)cc3)[nH]n2)c1` here?
A: The AC50 was 7.37 µM (active).

Q: And the EC50 [2]?
A: Its EC50 is 10 µM (active).

Q: And the EC50 [3]?
A: Its EC50 is 9.32 µM (active).

Q: And the EC50 [4]?
A: The EC50 was 9.42 µM (active).

Q: What about the AC50 [5] of the same compound?
A: Its AC50 is 5.48 µM (active).

Q: What about the EC50 [6] of the same compound?
A: Its EC50 is 8.35 µM (active).

Q: What about the AC50 [7] of the same compound?
A: Its AC50 is 19.9 µM (active).

Q: With `Fc1ccc(C[n+]2c(-c3ccccc3)cc(-c3ccccc3)cc2-c2ccccc2)cc1.[O-][Cl+3]([O-])([O-])[O-]` as the compound, how does the EC50 (cells) read?
A: The EC50 was 53 nM (active).

Q: What about the EC50 [8] of the same compound?
A: The EC50 was > 120 µM (not active).

Q: And the AC50 (INS1)?
A: The AC50 was 2.98 µM (active).

Q: What about the EC50 [9] of the same compound?
A: The EC50 was < 100 nM (active).

Q: And the EC50 [10]?
A: The EC50 was 35.3 µM (active).

Q: And the EC50 [11]?
A: The EC50 was 11.2 µM (active).

Q: What about the EC50 [12] of the same compound?
A: Its EC50 is > 60 µM (not active).

Q: And the CC50 [13]?
A: Its CC50 is > 40 µM (active).

Q: For `COC(=O)c1ccc(O)c(Sc2cc(C(=O)OC)ccc2O)c1`, which EC50 [3] is on record?
A: The EC50 was > 20 µM (not active).

Q: And the EC50 [4]?
A: The EC50 was 13.6 µM (active).

Q: And the IC50 (Aminopeptidase N)?
A: Its IC50 is 33.1 µM (active).

Q: For `Cn1ncc2c(Nc3ccc4ccccc4c3)ncnc21`, which CC50 [14] is on record?
A: Its CC50 is > 40 µM (active).

Q: What about the EC50 [15] of the same compound?
A: The EC50 was 1.89 µM (active).

Q: Which IC50 [16] does the source give for `CCOc1ccc(CCNC(=O)c2ccc3c(=O)[nH]c4c(C(=O)NC(C)C)sc(=S)n4c3c2)cc1` here?
A: Its IC50 is 30.1 µM (active).

Q: Which AC50 [17] does the source give for `O=C(NCC1(N2CCOCC2)CCCCC1)c1cccc(S(=O)(=O)Nc2ccc(F)cc2)c1` here?
A: Its AC50 is > 30 µM (inactive).

Q: For `CCCN(CCC)C(=O)C(CCC(=O)OCCCN1CCN(CCOC(=O)Cc2c(C)n(C(=O)c3ccc(Cl)cc3)c3ccc(OC)cc23)CC1)NC(=O)c1ccccc1` (stereo unspecified) [PROGLUMETACIN], which IC50 [18] is on record?
A: The IC50 was > 10 µM (inactive).

Q: What about the IC50 [19] of the same compound?
A: The IC50 was > 10 µM (inactive).

Q: What does the source list for `Cc1cccc(NC(=O)c2ccc([N+](=O)[O-])o2)c1`?
A: EC50 [20]: 18 µM (active); CC50 (Vero): 10 µM (active); IC50 [21]: 1.18 µM (active); EC50 [22]: 1.42 µM (active)

Q: Which EC50 [23] does the source give for `CN1CCSc2ccc(C(=O)NCc3ccccc3F)cc21` here?
A: The EC50 was > 112 µM (not active).

Q: What about the EC50 (Kallikrein-7) of the same compound?
A: Its EC50 is > 23.2 µM (inactive).

Q: What about the EC50 [24] of the same compound?
A: The EC50 was > 112 µM (not active).
